# Test results published in PubChem BioAssay AID250 (DTP/NCI, 2004).
# Where “and” joins values, the source holds several entries; their conditions need not be identical. Equal values may be shown once. Inconclusive results and toxic doses are left out.
# Test system: BDF1 mice, L1210 leukemia sc, survival T/C
# Experiment: NCI In Vivo Anticancer Drug Screen. Data for tumor model L1210 Leukemia (subcutaneous) in B6D2F1 (BDF1) mice
# Conditions: higher = longer survival
# Method in brief: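 Tumors were transplanted into mice, the animals were treated with compound, survival or tumor size was then measured, and treated values were divided by vehicle-control values.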
# [1] = endpoint: median survival time, dose: 14.0 mg/kg/injection, schedule: Q01DX Z (sc), vehicle: saline
# [2] = endpoint: median survival time, dose: 23.0 mg/kg/injection, schedule: Q01DX Z (sc), vehicle: saline
# [3] = endpoint: median survival time, dose: 65.0 mg/kg/injection, schedule: Q01DX Z (sc), vehicle: saline
# [4] = endpoint: median survival time, dose: 65.0 mg/kg/injection, schedule: Q01DX Z (sc), vehicle: carboxymethylcellulose (CMC)
smiles,measurement,setting,value
O=c1[nH]cnc2[nH]ncc12,T/C,"endpoint: mean survival time, dose: 20.0 mg/kg/injection, schedule: Q01DX001 (ip), vehicle: saline",97 % of control
same,T/C,"endpoint: mean survival time, dose: 30.0 mg/kg/injection, schedule: Q01DX001 (ip), vehicle: saline",101 % of control
same,T/C,"endpoint: mean survival time, dose: 40.0 mg/kg/injection, schedule: Q01DX001 (ip), vehicle: saline",98 % of control
same,T/C,"endpoint: mean survival time, dose: 80.0 mg/kg/injection, schedule: Q01DX001 (ip), vehicle: saline",98 % of control
same,T/C,"endpoint: median survival time, dose: 10.0 mg/kg/injection, schedule: Q01DX009 (ip), vehicle: saline",99 % of control (2×) and 100 % of control
same,T/C,"endpoint: median survival time, dose: 20.0 mg/kg/injection, schedule: Q01DX001 (ip), vehicle: saline",90 % of control
same,T/C,"endpoint: median survival time, dose: 20.0 mg/kg/injection, schedule: Q01DX009 (ip), vehicle: saline",100 % of control and 101 % of control (2×)
same,T/C,"endpoint: median survival time, dose: 30.0 mg/kg/injection, schedule: Q01DX001 (ip), vehicle: saline",100 % of control
same,T/C,"endpoint: median survival time, dose: 40.0 mg/kg/injection, schedule: Q01DX001 (ip), vehicle: saline",100 % of control
same,T/C,"endpoint: median survival time, dose: 40.0 mg/kg/injection, schedule: Q01DX009 (ip), vehicle: saline",99 % of control (2×) and 100 % of control
same,T/C,"endpoint: median survival time, dose: 80.0 mg/kg/injection, schedule: Q01DX001 (ip), vehicle: saline",100 % of control
N[C@@H](Cc1ccc(N(CCCl)CCCl)cc1)C(=O)O,T/C,"endpoint: median survival time, dose: 0.65 mg/kg/injection, schedule: Q01DX Z (sc), vehicle: water",100 % of control
same,T/C,"endpoint: median survival time, dose: 1.09 mg/kg/injection, schedule: Q01DX Z (sc), vehicle: water",100 % of control
same,T/C,"endpoint: median survival time, dose: 1.81 mg/kg/injection, schedule: Q01DX Z (sc), vehicle: water",95 % of control
same,T/C,"endpoint: median survival time, dose: 3.02 mg/kg/injection, schedule: Q01DX Z (sc), vehicle: water",100 % of control
same,T/C,"endpoint: median survival time, dose: 5.04 mg/kg/injection, schedule: Q01DX Z (sc), vehicle: water",104 % of control
same,T/C,"endpoint: median survival time, dose: 8.4 mg/kg/injection, schedule: Q01DX Z (sc), vehicle: water",100 % of control
same,T/C,[1],114 % of control
same,T/C,"endpoint: median survival time, dose: 14.0 mg/kg/injection, schedule: Q01DX Z (sc), vehicle: water",109 % of control
same,T/C,[2],123 % of control
same,T/C,"endpoint: median survival time, dose: 23.3 mg/kg/injection, schedule: Q01DX Z (sc), vehicle: water",109 % of control
same,T/C,"endpoint: median survival time, dose: 38.9 mg/kg/injection, schedule: Q01DX Z (sc), vehicle: water",118 % of control
same,T/C,"endpoint: median survival time, dose: 39.0 mg/kg/injection, schedule: Q01DX Z (sc), vehicle: saline",104 % of control
same,T/C,[3],104 % of control
O=C(Nc1ccc(C2=NCCN2)cc1)c1ccc(C(=O)Nc2ccc(C3=NCCN3)cc2)c([N+](=O)[O-])c1,T/C,"endpoint: median survival time, dose: 3.0 mg/kg/injection, schedule: Q01DX Z (sc), vehicle: saline",100 % of control
same,T/C,"endpoint: median survival time, dose: 5.0 mg/kg/injection, schedule: Q01DX Z (sc), vehicle: saline",109 % of control
same,T/C,"endpoint: median survival time, dose: 8.4 mg/kg/injection, schedule: Q01DX Z (sc), vehicle: saline",104 % of control and 109 % of control
same,T/C,[1],104 % of control
same,T/C,"endpoint: median survival time, dose: 23.0 mg/kg/injection, schedule: Q01DX Z (ip), vehicle: water",100 % of control
same,T/C,[2],118 % of control
same,T/C,"endpoint: median survival time, dose: 23.0 mg/kg/injection, schedule: Q01DX Z (sc), vehicle: water",100 % of control
same,T/C,"endpoint: median survival time, dose: 39.0 mg/kg/injection, schedule: Q01DX Z (ip), vehicle: water",160 % of control
same,T/C,"endpoint: median survival time, dose: 39.0 mg/kg/injection, schedule: Q01DX Z (sc), vehicle: water",115 % of control
same,T/C,"endpoint: median survival time, dose: 65.0 mg/kg/injection, schedule: Q01DX Z (ip), vehicle: water",180 % of control
same,T/C,[3],114 % of control and 209 % of control
C=CC(CN1CC1)OC(C)=O (stereo not drawn),T/C,"endpoint: median survival time, dose: 2.8 mg/kg/injection, schedule: Q01DX Z (sc), vehicle: saline",111 % of control
same,T/C,"endpoint: median survival time, dose: 4.7 mg/kg/injection, schedule: Q01DX Z (sc), vehicle: saline",122 % of control
same,T/C,"endpoint: median survival time, dose: 7.8 mg/kg/injection, schedule: Q01DX Z (sc), vehicle: saline",150 % of control
same,T/C,"endpoint: median survival time, dose: 13.0 mg/kg/injection, schedule: Q01DX Z (sc), vehicle: saline",188 % of control
same,T/C,"endpoint: median survival time, dose: 22.0 mg/kg/injection, schedule: Q01DX Z (sc), vehicle: saline",155 % of control
same,T/C,"endpoint: median survival time, dose: 60.0 mg/kg/injection, schedule: Q01DX Z (sc), vehicle: saline",122 % of control
NC(Cc1c[nH]c2ccc(N(CCCl)CCCl)cc12)C(=O)O (stereo not drawn),T/C,"endpoint: median survival time, dose: 0.65 mg/kg/injection, schedule: Q01DX Z (sc), vehicle: methylcellulose (MC)",105 % of control
same,T/C,"endpoint: median survival time, dose: 1.08 mg/kg/injection, schedule: Q01DX Z (sc), vehicle: methylcellulose (MC)",111 % of control
same,T/C,"endpoint: median survival time, dose: 1.8 mg/kg/injection, schedule: Q01DX Z (sc), vehicle: methylcellulose (MC)",123 % of control
same,T/C,"endpoint: median survival time, dose: 8.4 mg/kg/injection, schedule: Q01DX Z (sc), vehicle: methylcellulose (MC)",117 % of control
CCCCCCCCCCCCCCCC(=O)OCC1OC(n2ccc(N)nc2=O)C(O)C1O (stereo not drawn),T/C,"endpoint: median survival time, dose: 9.38 mg/kg/injection, schedule: Q01DX009 (ip), vehicle: saline",211 % of control
same,T/C,"endpoint: median survival time, dose: 9.38 mg/kg/injection, schedule: Q01DX009 (sc), vehicle: saline",177 % of control
same,T/C,"endpoint: median survival time, dose: 18.75 mg/kg/injection, schedule: Q01DX009 (ip), vehicle: saline",233 % of control
same,T/C,"endpoint: median survival time, dose: 18.75 mg/kg/injection, schedule: Q01DX009 (sc), vehicle: saline",233 % of control
same,T/C,"endpoint: median survival time, dose: 18.75 mg/kg/injection, schedule: Q04DX003 (sc), vehicle: saline",183 % of control
same,T/C,"endpoint: median survival time, dose: 37.5 mg/kg/injection, schedule: Q01DX001 (ip), vehicle: saline",155 % of control
same,T/C,"endpoint: median survival time, dose: 37.5 mg/kg/injection, schedule: Q01DX001 (sc), vehicle: saline",161 % of control
same,T/C,"endpoint: median survival time, dose: 37.5 mg/kg/injection, schedule: Q01DX009 (sc), vehicle: saline",188 % of control
same,T/C,"endpoint: median survival time, dose: 37.5 mg/kg/injection, schedule: Q04DX003 (ip), vehicle: saline",216 % of control
same,T/C,"endpoint: median survival time, dose: 37.5 mg/kg/injection, schedule: Q04DX003 (sc), vehicle: saline",233 % of control
same,T/C,"endpoint: median survival time, dose: 75.0 mg/kg/injection, schedule: Q01DX001 (ip), vehicle: saline",194 % of control
same,T/C,"endpoint: median survival time, dose: 75.0 mg/kg/injection, schedule: Q01DX001 (sc), vehicle: saline",95 % of control and 98 % of control and 233 % of control
same,T/C,"endpoint: median survival time, dose: 75.0 mg/kg/injection, schedule: Q01DX009 (sc), vehicle: saline",150 % of control
same,T/C,"endpoint: median survival time, dose: 75.0 mg/kg/injection, schedule: Q04DX003 (ip), vehicle: saline",227 % of control
same,T/C,"endpoint: median survival time, dose: 75.0 mg/kg/injection, schedule: Q04DX003 (sc), vehicle: saline",244 % of control
same,T/C,"endpoint: median survival time, dose: 150.0 mg/kg/injection, schedule: Q01DX001 (ip), vehicle: saline",255 % of control
same,T/C,"endpoint: median survival time, dose: 150.0 mg/kg/injection, schedule: Q01DX001 (sc), vehicle: saline",95 % of control and 98 % of control and 238 % of control
same,T/C,"endpoint: median survival time, dose: 150.0 mg/kg/injection, schedule: Q01DX009 (ip), vehicle: saline",122 % of control
same,T/C,"endpoint: median survival time, dose: 150.0 mg/kg/injection, schedule: Q04DX003 (ip), vehicle: saline",177 % of control
same,T/C,"endpoint: median survival time, dose: 150.0 mg/kg/injection, schedule: Q04DX003 (sc), vehicle: saline",150 % of control
same,T/C,"endpoint: median survival time, dose: 600.0 mg/kg/injection, schedule: Q01DX001 (ip), vehicle: saline",116 % of control
Nc1ncc(N)c(N)n1,T/C,"endpoint: median survival time, dose: 39.0 mg/kg/injection, schedule: Q01DX Z (sc), vehicle: methylcellulose (MC)",100 % of control
same,T/C,[4],100 % of control
same,T/C,"endpoint: median survival time, dose: 65.0 mg/kg/injection, schedule: Q01DX Z (sc), vehicle: methylcellulose (MC)",100 % of control
same,T/C,"endpoint: median survival time, dose: 108.0 mg/kg/injection, schedule: Q01DX Z (sc), vehicle: carboxymethylcellulose (CMC)",107 % of control
same,T/C,"endpoint: median survival time, dose: 108.0 mg/kg/injection, schedule: Q01DX Z (sc), vehicle: methylcellulose (MC)",100 % of control
same,T/C,"endpoint: median survival time, dose: 180.0 mg/kg/injection, schedule: Q01DX Z (sc), vehicle: carboxymethylcellulose (CMC)",100 % of control
same,T/C,"endpoint: median survival time, dose: 180.0 mg/kg/injection, schedule: Q01DX Z (sc), vehicle: methylcellulose (MC)",100 % of control
same,T/C,"endpoint: median survival time, dose: 300.0 mg/kg/injection, schedule: Q01DX Z (sc), vehicle: carboxymethylcellulose (CMC)",100 % of control
same,T/C,"endpoint: median survival time, dose: 300.0 mg/kg/injection, schedule: Q01DX Z (sc), vehicle: methylcellulose (MC)",100 % of control
same,T/C,"endpoint: median survival time, dose: 500.0 mg/kg/injection, schedule: Q01DX Z (sc), vehicle: carboxymethylcellulose (CMC)",100 % of control
O=NN(CCCl)C(=O)NC1CC2CCC1C2 (stereo not drawn),T/C,"endpoint: median survival time, dose: 23.0 mg/kg/injection, schedule: Q01DX Z (oral), vehicle: carboxymethylcellulose (CMC)",305 % of control
same,T/C,"endpoint: median survival time, dose: 23.0 mg/kg/injection, schedule: Q01DX Z (sc), vehicle: carboxymethylcellulose (CMC)",321 % of control
same,T/C,"endpoint: median survival time, dose: 39.0 mg/kg/injection, schedule: Q01DX Z (oral), vehicle: carboxymethylcellulose (CMC)",542 % of control
same,T/C,"endpoint: median survival time, dose: 39.0 mg/kg/injection, schedule: Q01DX Z (sc), vehicle: carboxymethylcellulose (CMC)",500 % of control
same,T/C,"endpoint: median survival time, dose: 65.0 mg/kg/injection, schedule: Q01DX Z (oral), vehicle: carboxymethylcellulose (CMC)",236 % of control
same,T/C,[4],289 % of control
same,T/C,"endpoint: median survival time, dose: 108.0 mg/kg/injection, schedule: Q01DX Z (oral), vehicle: carboxymethylcellulose (CMC)",178 % of control
